Here are results for 20 molecules from publication PMC4194234 (Psychopharmacology, 2014).

Like-named read-outs stand apart in the source and are kept apart here.

For test [1], the target named is T1, Norepinephrine Transporter (NET) (Rattus norvegicus, UniProt Q63380). The experiment in a line: [3H]NE uptake inhibition, rat brain synaptosomes. The class given is biochemical.
Test [2] deals with T2, 5-HT2A receptor (Homo sapiens, UniProt P28223). The experiment in a line: cell-based. The format is cell-based. The settings on record: for 5-HT2A agonist activity in calcium mobilization assay (in words) / 5-HT2A Emax: HEK293; for Emax: HEK293, read-out: 5-HT2A Emax; for 5-HT2A Emax: calcium mobilization, mean ± SEM, three experiments in duplicate. A general note: Calcium flux is commonly read through the fluorescence of an indicator in the cells.
Target sequence in this assay (P28223 whole entry): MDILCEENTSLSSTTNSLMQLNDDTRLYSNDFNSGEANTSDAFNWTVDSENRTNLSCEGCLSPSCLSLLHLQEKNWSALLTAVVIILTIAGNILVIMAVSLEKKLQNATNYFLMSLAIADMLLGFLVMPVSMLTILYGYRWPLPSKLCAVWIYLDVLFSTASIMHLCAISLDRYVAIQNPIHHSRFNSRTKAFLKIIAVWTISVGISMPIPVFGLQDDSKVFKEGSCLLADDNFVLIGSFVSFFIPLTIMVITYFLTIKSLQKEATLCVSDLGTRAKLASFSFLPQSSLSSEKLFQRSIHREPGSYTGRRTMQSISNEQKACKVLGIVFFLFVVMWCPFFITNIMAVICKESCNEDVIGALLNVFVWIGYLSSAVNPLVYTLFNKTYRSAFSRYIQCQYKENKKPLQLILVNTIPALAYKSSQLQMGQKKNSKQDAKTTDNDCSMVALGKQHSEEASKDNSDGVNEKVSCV

In test [3] the target is T3, 5-HT1A receptor (Homo sapiens, UniProt P08908).
T3 sequence (P08908 1-422): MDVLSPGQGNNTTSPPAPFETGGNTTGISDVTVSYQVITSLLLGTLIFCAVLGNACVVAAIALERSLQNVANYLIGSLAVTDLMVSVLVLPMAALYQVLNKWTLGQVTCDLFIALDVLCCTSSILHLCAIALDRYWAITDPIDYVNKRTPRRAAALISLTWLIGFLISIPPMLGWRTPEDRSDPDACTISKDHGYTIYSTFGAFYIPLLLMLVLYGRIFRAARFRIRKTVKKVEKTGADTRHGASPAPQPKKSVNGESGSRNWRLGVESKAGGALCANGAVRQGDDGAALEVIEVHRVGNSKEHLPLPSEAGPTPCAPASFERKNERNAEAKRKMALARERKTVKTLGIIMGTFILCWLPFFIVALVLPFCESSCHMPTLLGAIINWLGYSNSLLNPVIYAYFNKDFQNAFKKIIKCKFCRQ
The experiment in a line: 5-HT1A calcium mobilization assay in Gα16-CHO cells. Conditions: for 5-HT1A Emax: calcium mobilization, Gα16-CHO, mean ± SEM, three experiments in duplicate. The class given is cell-based.

Test [4] concerns the target T2, 5-HT2A receptor. The experiment in a line: cell-based. Conditions: for Emax: CHO-K1, read-out: 5-HT2A β-arrestin Emax; for 5-HT2A β-arrestin Emax: β-arrestin recruitment, mean ± SEM, three experiments in duplicate; for 5-HT2A β-arrestin Emax / 5-HT2A β-arrestin recruitment activity (in words): CHOk1; for 5-HT2A β-arrestin recruitment activity (in words): screened at 10 µM. The format is cell-based. In general terms: Recruitment of arrestin is a read-out of receptor activation apart from second messengers.
Target sequence in this assay (P28223 whole entry): as the sequence (P28223 whole entry) above
Target sequence in this assay (P32121 whole entry, further chain): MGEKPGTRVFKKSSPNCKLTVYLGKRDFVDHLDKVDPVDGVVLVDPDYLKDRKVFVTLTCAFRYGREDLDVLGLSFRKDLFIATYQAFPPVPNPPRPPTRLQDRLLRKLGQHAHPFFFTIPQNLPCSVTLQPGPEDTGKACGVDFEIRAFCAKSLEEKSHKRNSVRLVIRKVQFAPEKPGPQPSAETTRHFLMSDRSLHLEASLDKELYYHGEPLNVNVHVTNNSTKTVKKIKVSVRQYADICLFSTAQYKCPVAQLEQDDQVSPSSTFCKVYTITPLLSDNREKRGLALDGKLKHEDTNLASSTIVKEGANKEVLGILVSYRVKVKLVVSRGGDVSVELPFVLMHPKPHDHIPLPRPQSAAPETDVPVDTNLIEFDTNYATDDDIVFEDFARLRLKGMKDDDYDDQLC

In test [5] the test system is humans. Conditions: tabulated from anecdotal reports in TiHKAL, ref Shulgin and Shulgin 1997; cited from earlier work.
Test [6] addresses T4, SERT (Rattus norvegicus, UniProt P31652). The experiment in a line: [3H]5-HT uptake inhibition, rat brain synaptosomes. Conditions: for 5-HT uptake inhibitor activity at SERT (in words): rat brain synaptosomes.
For test [7], the target named is T5, Dopamine Transporter (DAT) (Rattus norvegicus, UniProt P23977). The experiment in a line: [3H]DA uptake inhibition, rat striatum synaptosomes.
Test [8] addresses T1, Norepinephrine Transporter (NET). The experiment in a line: NET-mediated release, rat brain synaptosomes. The format is biochemical.
The target in test [9] is T4, SERT. The experiment in a line: SERT-mediated release, rat brain synaptosomes. Conditions: for 5-HT releasing activity at SERT (in words): rat brain synaptosomes.
Test [10] addresses T5, Dopamine Transporter (DAT). The experiment in a line: DAT-mediated release, rat striatum synaptosomes.

T1 sequence (Q63380 1-617): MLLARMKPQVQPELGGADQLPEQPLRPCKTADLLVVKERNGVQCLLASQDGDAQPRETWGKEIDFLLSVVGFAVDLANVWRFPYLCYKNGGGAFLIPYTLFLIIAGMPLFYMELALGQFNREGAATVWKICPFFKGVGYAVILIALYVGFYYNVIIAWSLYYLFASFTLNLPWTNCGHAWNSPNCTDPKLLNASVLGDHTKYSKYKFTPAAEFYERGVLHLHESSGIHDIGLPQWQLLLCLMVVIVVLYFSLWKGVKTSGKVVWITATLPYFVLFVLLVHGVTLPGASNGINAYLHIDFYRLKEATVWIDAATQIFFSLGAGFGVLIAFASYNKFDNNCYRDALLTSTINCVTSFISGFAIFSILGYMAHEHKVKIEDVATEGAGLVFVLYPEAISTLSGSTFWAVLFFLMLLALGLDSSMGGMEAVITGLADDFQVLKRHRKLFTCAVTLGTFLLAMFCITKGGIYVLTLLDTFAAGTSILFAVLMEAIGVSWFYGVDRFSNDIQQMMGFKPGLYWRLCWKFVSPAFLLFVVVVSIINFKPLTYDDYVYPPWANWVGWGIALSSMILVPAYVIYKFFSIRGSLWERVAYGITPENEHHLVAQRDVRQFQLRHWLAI
T5 sequence (P23977 whole entry): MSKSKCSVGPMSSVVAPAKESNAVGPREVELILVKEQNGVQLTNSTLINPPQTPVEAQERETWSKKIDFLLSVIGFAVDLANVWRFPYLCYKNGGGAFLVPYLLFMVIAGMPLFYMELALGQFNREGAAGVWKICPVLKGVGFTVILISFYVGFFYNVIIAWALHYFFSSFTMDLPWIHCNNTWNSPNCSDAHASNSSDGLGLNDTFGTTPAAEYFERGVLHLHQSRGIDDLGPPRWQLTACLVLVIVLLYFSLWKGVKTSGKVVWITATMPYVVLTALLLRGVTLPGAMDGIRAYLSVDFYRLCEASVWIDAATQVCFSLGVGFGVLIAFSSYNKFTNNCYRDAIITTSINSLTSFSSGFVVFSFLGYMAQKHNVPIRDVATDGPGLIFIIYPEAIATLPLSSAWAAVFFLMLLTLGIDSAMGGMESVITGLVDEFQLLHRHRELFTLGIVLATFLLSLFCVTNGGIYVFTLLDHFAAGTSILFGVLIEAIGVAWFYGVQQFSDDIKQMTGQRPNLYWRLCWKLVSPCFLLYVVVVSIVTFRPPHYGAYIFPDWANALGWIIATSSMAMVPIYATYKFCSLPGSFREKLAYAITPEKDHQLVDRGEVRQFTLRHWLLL
T4 sequence (P31652 whole entry): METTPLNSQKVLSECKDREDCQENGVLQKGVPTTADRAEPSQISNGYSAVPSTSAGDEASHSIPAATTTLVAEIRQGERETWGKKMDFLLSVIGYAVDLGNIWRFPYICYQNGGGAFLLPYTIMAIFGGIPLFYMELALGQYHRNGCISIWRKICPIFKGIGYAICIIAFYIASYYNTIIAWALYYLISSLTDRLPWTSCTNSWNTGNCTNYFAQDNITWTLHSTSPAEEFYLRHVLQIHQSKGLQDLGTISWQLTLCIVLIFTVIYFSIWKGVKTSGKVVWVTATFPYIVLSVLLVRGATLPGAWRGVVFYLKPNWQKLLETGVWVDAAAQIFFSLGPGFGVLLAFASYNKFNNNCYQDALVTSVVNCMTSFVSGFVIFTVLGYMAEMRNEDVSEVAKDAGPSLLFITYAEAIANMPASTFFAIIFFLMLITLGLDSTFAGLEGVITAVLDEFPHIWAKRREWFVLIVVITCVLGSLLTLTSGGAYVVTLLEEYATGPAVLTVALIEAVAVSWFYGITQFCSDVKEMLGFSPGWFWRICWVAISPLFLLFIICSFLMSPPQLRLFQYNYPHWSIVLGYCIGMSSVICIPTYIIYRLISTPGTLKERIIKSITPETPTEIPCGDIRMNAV

Usually IC50 stands for the concentration that inhibits the measured activity by half. Read a high IC50 as a need for much substance. What is called Emax is the greatest response seen or fitted, relative to the assay's reference. By EC50 is commonly meant the concentration needed to bring the measured effect to its halfway point. As for `COc1ccc2[nH]cc(CCN(C(C)C)C(C)C)c2c1` [Compound 1, N,N-diisopropyl-5-methoxytryptamine], the IC50 in [1] was over 10 µM; in test [6], 0.646 ± 0.048 µM; in test [7], over 10 µM. For the same molecule, the “5-HT2A agonist activity in calcium mobilization assay (in words)” value in test [2] is given as “low nanomolar potency”. Also, the Emax in test [2] came out at 109 ± 5%; in [4], 124 ± 12%. Moreover, the EC50 in [3] was over 10 µM. The “Psychoactive Effects” value in test [5] is “Erotic, senses distorted, short-lived, could not make intuitive leaps”.

`CC(C)N(CCc1c[nH]c2ccccc12)C(C)C` [Compound 22]: in test [2], the “5-HT2A Emax” value worked out at 110 ± 2%. In addition, the “Psychoactive Effects” value in [5] was “Auditory, not visual, heard voices, sounds had “golden spikes”, religious overtones”.

As for `COc1ccc2[nH]cc(CCNC(C)C)c2c1` [Compound 27], in test [2], the “5-HT2A agonist activity in calcium mobilization assay (in words)” value is reported as “low nanomolar potency” and the “5-HT2A Emax” value stood at 101 ± 2%. Moreover, the “5-HT2A β-arrestin Emax” value in test [4] is given as 99 ± 6%.

Consider `COc1ccc2[nH]cc(CCN(C)C(C)C)c2c1` [Compound 2, N-isopropyl-N-methyl-5-methoxytryptamine], for which the IC50 in test [1], in [6] and in test [7] was over 10 µM throughout. Further, the “5-HT2A agonist activity in calcium mobilization assay (in words)” value in test [2] is “low nanomolar potency”. The maximum response (Emax) in [2] came to 101 ± 3%; in test [4], 82 ± 13%. Moreover, the EC50 is over 10 µM in test [3] and 0.566 ± 0.11 µM in test [4]. Also, in test [5], the “Psychoactive Effects” value is on record as “Fast onset, stimulates conceptual thought, depersonalization”. Further, the “5-HT uptake inhibitor activity at SERT (in words)” value in test [6] is “totally inactive”.

In the case of `CCN(CC)CCc1c[nH]c2ccccc12` [Compound 19], in test [2], the “5-HT2A Emax” value was 90 ± 6%. For the same molecule, in test [5], the “Psychoactive Effects” value is on record as “Psychoactive, visuals, vertigo”. Moreover, the “Fold more potent at SERT uptake inhibition than 5-MeO-DET” value in [6] (DET versus 5-MeO-DET (26)) turned out to be 10 fold.

Take `CCNCCc1c[nH]c2ccc(OC)cc12` [Compound 18, 5-methoxy-N-ethyltryptamine]: the EC50 in [8] is over 10 µM; in test [3], 0.262 ± 0.027 µM; in test [4], 0.568 ± 0.174 µM; in test [9], 0.284 ± 0.0416 µM; in [10] it was over 10 µM. Also, the Emax in test [2] worked out at 112 ± 3%; in [4] it was 103 ± 12%. Also, the “5-HT2A β-arrestin recruitment activity (in words)” value in test [4] is “fully efficacious”. In addition, the “5-HT releasing activity at SERT (in words)” value (from here on “5-HT releasing activity”) in [9] is “releasers”.

For `CN(C)CCc1c[nH]c2cccc(O)c12` [Compound 24, Psilocin], the IC50 in test [1] was over 10 µM; in test [6], 0.662 ± 0.041 µM; in [7], over 10 µM. The Emax in test [2] is 76 ± 7%. Further, in [5], the “Psychoactive Effects” value is “Very visual, lots of colors, better at night”.

As for `CCN(CC)CCc1c[nH]c2ccc(OC)cc12` [Compound 26], in [2], the “5-HT2A agonist activity in calcium mobilization assay (in words)” value was “low nanomolar potency” and the “5-HT2A Emax” value was 101 ± 0.8%. The “5-HT1A Emax” value in test [3] is on record as 67 ± 2%. Also, the “5-HT2A β-arrestin Emax” value in test [4] was 64 ± 8%. In addition, the “Psychoactive Effects” value in test [5] is given as “Auditory changes, negative experiences, anxiety”.

With `CC(C)N(C)CCc1c[nH]c2ccccc12` [Compound 23], the “5-HT2A Emax” value in test [2] came out at 74 ± 5%. Further, the “Psychoactive Effects” value in test [5] is reported as “Mild hallucinations, stimulant, fast onset, psychedelic”. Further, in [6], the “5-HT uptake inhibitor activity at SERT (in words)” value is “totally inactive”.

Take `CC(N)Cc1c[nH]c2ccccc12` (stereo not drawn) [Compound 13]: the “Psychoactive Effects” value in test [5] is given as “Psychedelic but varied, fast/slow onset, good/bad experiences, long lasting, no visuals, speed-like, tachycardia, jaw clenching”.

Take `CCCN(CCC)CCc1c[nH]c2ccccc12` [Compound 21]: the “5-HT2A Emax” value in test [2] was found to be 97 ± 3%. Besides, the “5-HT2A β-arrestin Emax” value in [4] came out at 63 ± 8%. In addition, the “Psychoactive Effects” value in test [5] is “Intensely visual, long lasting, things appear fast, religious experiences”.

Turning to `COc1ccc2[nH]cc(CCN)c2c1` [Compound 25], the “5-HT1A Emax” value in [3] was 66 ± 4%. Besides, the “Psychoactive Effects” value in test [5] is “Not particularly active, possibly due to metabolism similar to 12”.

With `NCCc1c[nH]c2ccccc12` [Compound 12, Tryptamine], in [4], the maximal effect (Emax) was 108 ± 16%. Besides, the “Psychoactive Effects” value in test [5] is “Psychoactive, short acting due to metabolism, increased blood pressure, similar to LSD”. In addition, the “5-HT releasing activity” value in [9] is listed as “releasers”.

Regarding `CNCCc1c[nH]c2ccccc12` [Compound 14, N-methyltryptamine], the EC50 in test [3] and in test [4] was over 10 µM each time. The “5-HT2A β-arrestin recruitment activity (in words)” value in test [4] was “inactive”.

On to `COc1ccc2[nH]cc(CCN(C)C)c2c1` [Compound 7, N,N-dimethyl-5-methoxytryptamine], for which the IC50 in [1] is over 10 µM; in test [6], 2.18 ± 0.222 µM; in [7] it was over 10 µM. Moreover, the “5-HT2A agonist activity in calcium mobilization assay (in words)” value in test [2] was “low nanomolar potency”. In addition, the results for the Emax in [2] and in test [4] were 101 ± 4% and 56 ± 6%, respectively. Moreover, the “5-HT1A Emax” value in [3] stood at 68 ± 3%. Moreover, the “Psychoactive Effects” value in test [5] was “Time distortions, stoned feeling, hallucinogenic at high doses”.

As for `CCCN(CCC)CCc1c[nH]c2ccc(OC)cc12` [Compound 28], in test [2], the “5-HT2A agonist activity in calcium mobilization assay (in words)” value is listed as “low nanomolar potency” and the “5-HT2A Emax” value is reported as 101 ± 3%. The “5-HT1A Emax” value in test [3] was 43 ± 5%. The “5-HT2A β-arrestin Emax” value in test [4] is given as 68 ± 2%. For the same molecule, the “Psychoactive Effects” value in [5] is “Comfortable at low doses, oscillating good and bad sounds, negative side dominated as buzz continues”.

In the case of `CC(C)NCCc1c[nH]c2ccccc12` [Compound 20], the “5-HT2A Emax” value in test [2] is reported as 96 ± 3%. The “Psychoactive Effects” value in test [5] was “Light-headed intoxicant, pleasant buzz”.

Take `CN(C)CCc1c[nH]c2ccc(O)cc12` [Compound 16, N,N-dimethyl-5-hydroxytryptamine]: the EC50 in [8] was over 10 µM; in test [3] it was 0.366 ± 0.067 µM; in test [10], over 10 µM. Moreover, the “Psychoactive Effects” value in [5] was “Some visuals (lines and dots), tightness in chest, nausea, breathing issues, mind feels crowded”.

Regarding `CN(C)CCc1c[nH]c2ccccc12` [Compound 6, N,N-dimethyltryptamine], the EC50 in test [8] is 4.17 ± 0.317 µM; in test [4] it was over 10 µM; in test [9], 0.114 ± 0.015 µM; in [10], over 10 µM. Besides, the Emax in [2] was 83 ± 0.4%. For the same molecule, the “5-HT2A β-arrestin recruitment activity (in words)” value in test [4] is “inactive”. In addition, in [5], the “Psychoactive Effects” value was “Heavy intoxicant and hallucinogen, visuals, intense colors”.

On to `CNCCc1c[nH]c2ccc(OC)cc12` [Compound 17], for which the “5-HT2A Emax” value in [2] amounted to 84 ± 20%. Further, the “5-HT1A Emax” value in test [3] was determined as 72 ± 4%. Also, the “5-HT2A β-arrestin Emax” value in [4] amounted to 66 ± 9%. For the same molecule, the “5-HT releasing activity” value in test [9] is “releasers”.
